Measured values from paper PMC4497506 (Journal of medicinal chemistry, 2015).
*1 amine or outer side, *2 acyl side, *3 side chain or, on linkers, in order; H or OH if unused. Where a SMILES comes first, the peptide text is derived from it. [ ]: non-standard residue; d: D form. X1 = O=C([C@@H]1C[C@H](n2cc([C]34[CH]5[CH]6[CH]7[CH]3[Fe]6754389%10[CH]4[CH]3[CH]8[CH]9[CH]4%10)nn2)CN1[*:1])[*:2]; X2 = O=C([C@@H]1C[C@H](n2nncc2[C]23[CH]4[CH]5[CH]6[CH]2[Fe]56432789[CH]3[CH]2[CH]7[CH]8[CH]39)CN1[*:1])[*:2]; Bta = N[C@@H](Cc1csc2ccccc12)C(=O)O

What was measured:
gp120YU-2 S375H = gp120YU-2 S375H (Human immunodeficiency virus type 1 group M subtype B, UniProt P35961, S370H); assay: Competition SPR: inhibition of gp120 S375H binding to sCD4; parameters: species or system HIV-1
wt gp120YU-2 = wt gp120YU-2 (Human immunodeficiency virus type 1 group M subtype B, UniProt P35961); assay: Competition SPR: inhibition of wt gp120YU-2 binding to immobilized sCD4; parameters: species or system HIV-1; details: relative to peptide 1

SMILES	inhibition of S375H mutant binding to sCD4 (gp120YU-2 S375H)	weaker binding than peptide 1 (wt gp120YU-2) [fold]
CC[C@H](C)[C@H](N)C(=O)N[C@@H](CC(N)=O)C(=O)N[C@@H](CC(N)=O)C(=O)N[C@H](C(=O)N1C[C@@H](n2cc([C]34[CH]5[CH]6[CH]7[CH]3[Fe]6754389%10[CH]4[CH]3[CH]8[CH]9[CH]4%10)nn2)C[C@H]1C(=O)N[C@@H](Cc1csc2ccccc12)C(N)=O)[C@@H](C)CC (some centres unmarked) [peptide 3] (H-INNI[X1][Bta]-NH2)	resistant	–
CC[C@H](C)[C@H](N)C(=O)N[C@@H](CC(N)=O)C(=O)N[C@@H](CC(N)=O)C(=O)N[C@H](C(=O)N1C[C@@H](n2nncc2[C]23[CH]4[CH]5[CH]6[CH]2[Fe]56432789[CH]3[CH]2[CH]7[CH]8[CH]39)C[C@H]1C(=O)N[C@@H](Cc1c[nH]c2ccccc12)C(N)=O)[C@@H](C)CC (some centres unmarked) [peptide 6] (H-INNI[X2]W-NH2)	–	~200
